# Results published in ChEMBL document CHEMBL2413072, “Synthesis and in vitro anticancer studies of novel C-2 arylidene congeners of lantadenes” (2013).
# Legend:
# Format in all cases: functional
# [1] = system: A498; experiment: Growth inhibition of human A498 cells by sulforhodamine B assay
# [2] = system: OVCAR-3; experiment: Growth inhibition of human OVCAR3 cells by sulforhodamine B assay
# [3] = system: MDA-MB-435; experiment: Growth inhibition of human MDA-MB-435 cells by sulforhodamine B assay
# [4] = system: U-251; experiment: Growth inhibition of human U251 cells by sulforhodamine B assay
# [5] = system: SNB-19; experiment: Growth inhibition of human SNB19 cells by sulforhodamine B assay
# [6] = system: T47D; experiment: Growth inhibition of human T47D cells assessed as cell growth at 10^-4 M by sulforhodamine B assay; details: read-out: Activity
# [7] = Growth inhibition of human Hs 578T cells assessed as cell growth at 10^-4 M by sulforhodamine B assay; details: read-out: Activity
# [8] = system: UACC-62; experiment: Growth inhibition of human UACC62 cells assessed as cell growth at 10^-4 M by sulforhodamine B assay; details: read-out: Activity
# [9] = system: SF-539; experiment: Growth inhibition of human SF539 cells assessed as cell growth at 10^-4 M by sulforhodamine B assay; details: read-out: Activity
# [10] = system: HCT-15; experiment: Growth inhibition of human HCT15 cells assessed as cell growth at 10^-4 M by sulforhodamine B assay; details: read-out: Activity
# [11] = system: TK-10; experiment: Growth inhibition of human TK10 cells assessed as cell growth at 10^-6 M by sulforhodamine B assay; details: read-out: Activity
# [12] = system: OVCAR-8; experiment: Growth inhibition of human OVCAR8 cells assessed as cell growth at 10^-6 M by sulforhodamine B assay; details: read-out: Activity
# [13] = system: SK-MEL-2; experiment: Growth inhibition of human SK-MEL-2 cells assessed as cell growth at 10^-6 M by sulforhodamine B assay; details: read-out: Activity
# [14] = system: M14; experiment: Growth inhibition of human M14 cells assessed as cell growth at 10^-6 M by sulforhodamine B assay; details: read-out: Activity
# [15] = system: U-251; experiment: Growth inhibition of human U251 cells assessed as cell growth at 10^-6 M by sulforhodamine B assay; details: read-out: Activity
# [16] = system: SNB-75; experiment: Growth inhibition of human SNB75 cells assessed as cell growth at 10^-6 M by sulforhodamine B assay; details: read-out: Activity
# [17] = system: COLO 205; experiment: Growth inhibition of human COLO205 cells assessed as cell growth at 10^-6 M by sulforhodamine B assay; details: read-out: Activity
# [18] = system: NCI-H226; experiment: Growth inhibition of human NCI-H226 cells assessed as cell growth at 10^-6 M by sulforhodamine B assay; details: read-out: Activity
# [19] = system: PC-3; experiment: Growth inhibition of human PC3 cells assessed as cell growth at 10^-7 M by sulforhodamine B assay; details: read-out: Activity
# [20] = system: CAKI-1; experiment: Growth inhibition of human CAKI-1 cells assessed as cell growth at 10^-7 M by sulforhodamine B assay; details: read-out: Activity
# [21] = system: 786-0; experiment: Growth inhibition of human 786-0 cells assessed as cell growth at 10^-7 M by sulforhodamine B assay; details: read-out: Activity
# [22] = system: OVCAR-5; experiment: Growth inhibition of human OVCAR5 cells assessed as cell growth at 10^-7 M by sulforhodamine B assay; details: read-out: Activity
# [23] = system: NCI-H226; experiment: Growth inhibition of human NCI-H226 cells assessed as cell growth at 10^-7 M by sulforhodamine B assay; details: read-out: Activity
# [24] = system: SR; experiment: Growth inhibition of human SR cells assessed as cell growth at 10^-7 M by sulforhodamine B assay; details: read-out: Activity
# [25] = Growth inhibition of human Hs 578T cells assessed as cell growth at 10^-8 M by sulforhodamine B assay; details: read-out: Activity
# [26] = system: RXF 393; experiment: Growth inhibition of human RXF393 cells assessed as cell growth at 10^-8 M by sulforhodamine B assay; details: read-out: Activity
# [27] = system: OVCAR-8; experiment: Growth inhibition of human OVCAR8 cells assessed as cell growth at 10^-8 M by sulforhodamine B assay; details: read-out: Activity
# [28] = read-out: pLC50 (the source's name) (converted)
# [29] = read-out: LC50 (the source's name)
structure (smiles),measurement,setting,value
CC(C)=CC(=O)O[C@@H]1CC(C)(C)C[C@H]2C3=CC[C@@H]4[C@@]5(C)CC[C@H](O)C(C)(C)[C@@H]5CC[C@@]4(C)[C@]3(C)CC[C@@]12C(=O)O [Reduced Lantadene B],GI50,[1]; read-out: pGI50 (converted),2.82 µM
same,CC50,[1]; [28],41.7 µM
same,TGI,[1]; read-out: pTGI (converted),13.8 µM
same,GI50,[2]; read-out: GI50,7.04 µM
same,CC50,[2]; [29],54.7 µM
same,TGI,[2]; read-out: TGI,22.1 µM
same,GI50,[2]; read-out: pGI50 (converted),7.08 µM
same,CC50,[2]; [28],55 µM
same,TGI,[2]; read-out: pTGI (converted),21.9 µM
same,GI50,[3]; read-out: GI50,11.9 µM
same,CC50,[3]; [29],> 100 µM
same,TGI,[3]; read-out: TGI,48.4 µM
same,GI50,[3]; read-out: pGI50 (converted),12 µM
same,CC50,[3]; [28],> 100 µM
same,TGI,[3]; read-out: pTGI (converted),47.9 µM
same,GI50,[4]; read-out: GI50,2.62 µM
same,CC50,[4]; [29],71.6 µM
same,TGI,[4]; read-out: TGI,16.7 µM
same,GI50,[4]; read-out: pGI50 (converted),2.63 µM
same,CC50,[4]; [28],70.8 µM
same,TGI,[4]; read-out: pTGI (converted),16.6 µM
same,GI50,[5]; read-out: GI50,4.93 µM
same,CC50,[5]; [29],74.4 µM
same,TGI,[5]; read-out: TGI,22.5 µM
same,GI50,[5]; read-out: pGI50 (converted),4.9 µM
same,CC50,[5]; [28],74.1 µM
same,TGI,[5]; read-out: pTGI (converted),22.4 µM
same,growth at 100 µM,[6],-17%
same,growth at 100 µM,[7],-45%
same,growth at 100 µM,[8],-81%
same,growth at 100 µM,[9],-38%
same,growth at 100 µM,[10],-44%
same,growth at 1 µM,[11],86%
same,growth at 1 µM,[12],82%
same,growth at 1 µM,[13],107%
same,growth at 1 µM,[14],89%
same,growth at 1 µM,[15],73%
same,growth at 1 µM,[16],85%
same,growth at 1 µM,[17],102%
same,growth at 1 µM,[18],86%
same,growth at 0.1 µM,[19],90%
same,growth at 0.1 µM,[20],98%
same,growth at 0.1 µM,[21],96%
same,growth at 0.1 µM,[22],111%
same,growth at 0.1 µM,[23],88%
same,growth at 0.1 µM,[24],104%
same,growth at 0.01 µM,[25],96%
same,growth at 0.01 µM,[26],97%
same,growth at 0.01 µM,[27],101%
